Measured values: PMC3723878 (PLoS ONE, 2013)

Target: T1, α1A-AR (Homo sapiens, UniProt P35348)
T1 sequence (P35348 1-466): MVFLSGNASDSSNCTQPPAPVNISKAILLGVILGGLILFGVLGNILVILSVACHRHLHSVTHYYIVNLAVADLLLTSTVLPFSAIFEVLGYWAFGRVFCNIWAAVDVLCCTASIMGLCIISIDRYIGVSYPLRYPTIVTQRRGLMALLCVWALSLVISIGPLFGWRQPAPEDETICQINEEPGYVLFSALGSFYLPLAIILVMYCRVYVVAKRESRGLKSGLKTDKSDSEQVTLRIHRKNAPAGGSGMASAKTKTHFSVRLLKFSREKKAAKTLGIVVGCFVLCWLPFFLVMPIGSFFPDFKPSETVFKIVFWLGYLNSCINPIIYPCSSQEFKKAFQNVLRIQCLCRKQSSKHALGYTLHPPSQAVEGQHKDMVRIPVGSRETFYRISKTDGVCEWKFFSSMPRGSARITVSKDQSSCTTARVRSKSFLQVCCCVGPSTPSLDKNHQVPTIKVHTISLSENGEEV
Format: binding
Set-up: expressed in transfected cells; host or cells: COS-7, transient (calcium phosphate)
Conditions: ^125I-HEAT 0.4 nM, HEAT 5 µM alone
Method: Binding experiments were performed in a 100 µL reaction mix at room temperature in buffer composed of 50 mM Tris-HCl, pH 7.4, 10 mM MgCl2, 1 g/L BSA. Reactions were stopped by filtration through 96 GF/C filter plates pre-incubated with 0.5% polyethylenimine.
Binding data were analyzed by nonlinear regression using the KaleidaGraph 4.0 software (Synergy software, Reading, PA). pKD values and Bmax (number of binding sites) were determined by applying a nonlinear regression to data obtained with saturation binding assays. The nonlinear regression used was BS = (Bmax*A)/KD+A, where BS is the specific binding, Bmax the number of binding sites, A the concentration of radioligand, and KD the dissociation constant of the radioligand. Data resulting from competition binding assays were analyzed using the Hill equation for IC50 and curve slope estimations. […] The linear curves were analyzed with IC50 = Ki+(L/KD)*Ki. Dissociation kinetics were analyzed using a simple equation of exponential decay BS * exp (-Koff*t), where BS is the specific binding at time zero and Koff is the dissociation rate constant. Results are expressed as mean ± s.e. mean from n independent experiments. One-way Anova test was used to compare values. A p<0.05 was accepted for statistical significance.

O=C1c2ccccc2CCC1CNCCc1ccc(O)c([125I])c1 (stereo not shown) [125I-HEAT]
^125I-HEAT dissociation rate (Koff): 0.00103 s⁻¹
